Data reported in patent US12329828B2, “Pyrimidine nucleoside compounds for fluorescence imaging and spectroscopy” (San Diego State University Foundation, priority 2020, dated 2025).
“And” between values parts separate entries of the source, which are not always exact repeats. Equal entries are not always repeated. Marks after values point to notes of the source that are not given here.

Assays:
Type in all cases: physicochemical
[1] = Two-photon single-molecule characterization (fluorescence correlation spectroscopy)
Source text: Single-molecule fluorescence measurements. Given the very attractive bulk-level photophysical properties of ABN in solution, we next investigated its potential as a single-molecule probe. […] In a later study, the base analogue DMA^thaU was detected as a free nucleoside at the single-molecule level for the first time via multiphoton excitation with a brightness of […] per molecule following three-photon excitation (see Phys. Chem. Chem. Phys. 2018, 20 (45), 28487; and J. Phys. Chem. Lett. 2019, 10 (17), 5008). […] The 2P brightness was measured using fluorescence correlation spectroscopy (FCS) and found to match that of DMA^thaU at 7 kHz per molecule (FIG. 3B).
Sample preparation for 2P method. All experiments were done with a solution of approximately 100 nM of ABN in TRIS buffer (20 mM TRIS base) at a pH of 7.5. The molecules were initially dissolved in DMSO (at a concentration of 100 μM) and subsequently diluted in buffer. The TRIS buffer was prepared with ultrapure water (Direct Q3, Merck Millipore), TRIS-base (20 mM, Trizma base, BioUltra, Sigma-Aldrich) and 150 mM NaCl (analytical reagent grade, Fluka). The pH was adjusted to 7.5 with a HCl solution (Sigma-Aldrich). Prior to sample preparation, the buffer was filtered with activated charcoal (Darco, Fluca) and through a 0.2 μm filter (Milex, Merck).
Two photon microscope. The two-photon microscope is a homebuilt pulse-shaper assisted setup with a ultra-broadband Ti:Sa laser as light source, recently described (R. S. Fisher, et al., Phys. Chem. Chem. Phys., 20, 28487 (2018)). The excitation source was a broadband Ti: Sapphire laser with a repetition rate of 80 MHz and a spectrum centered on 800 nm with a FWHM of 135 nm (Vitara UBB, Coherent). […] Sample fluorescence was collected by the same objective and transmitted through a dichroic mirror (Chroma 675dcspxr) and a short pass filter (Semrock FF01-650/SP), split by a polarising beamsplitter cube and detected by two avalanche photodiodes (MPD PDM 50c and 1MPD $PD-050-CTB). The signal was subsequently detected by a hardware correlator (ALV-7002, ALV GmbH).

[2] = Steady-state photophysical measurements of ABN in single-stranded and duplex DNA oligonucleotides
Source text: Next, we measured the fluorescence of ABN in single-stranded and duplex DNA oligonucleotides to determine how base pairing and stacking influence its photophysical properties (Table 2). ABN increases its fluorescence to Φem=0.50-0.53 in matched duplex DNA oligonucleotides when base paired with A and Φem=0.55 when the analogue is present in the hairpin loop of ODN1. The quantum yield is less, 0.40 and 0.29, in ODN1:ODN3 and ODN4:ODN6 respectively, in which ABN is base paired with G. In ODN7:ODN9 Φem,=0.55, slightly greater than when base paired with A. In all of these single-stranded and duplex sequences, ABN is brighter than any other known FBA when present in oligonucleotides.
(§1) Quantum yields measurements. Experiments were measured in a quartz sub-micro cuvette (10 mm path length) purchased from Starnacell Inc. Steady state emission scans were recorded using a PTI QuantaMaster QM-400 and absorbances were measured on a Shimadzu UV-1700 Pharmaspec spectrometer. Quantum yield measurements were performed the comparative method of Williams et. al. and measured in duplicate, at minimum. Coumarin 153 in ethanol was used as a reference standard for all photophysical measurements. All measurements were taken with an absorbance range of 0.01-0.1. Subsequent dilutions were performed stepwise in order to obtain a minimum of six absorbance and emission spectra for quantum yield determinations.

[3] = One-photon single-molecule total internal reflection fluorescence (smTIRF) microscopy
Source text: The red-shifted absorption profile, high 2P brightness and predominance of the bright state made ABN a promising candidate for single-molecule detection via 1P excitation. […] Furthermore, these fluorescent puncta underwent single-step photobleaching under constant irradiation (FIG. 4B), consistent with the idea that ABN has suitable optical properties to be used as a single-molecule fluorescent nucleoside. By quantifying >2000 individual trajectories, we were able to determine the mean total detected photon value of 5300±1800 photons per molecule; furthermore, a mean of 1500±600 photons were detected per 100 ms integration from each molecule at a power density of 0.2 kW cm^−2.
Sample and slide preparation for IP method. ABN (10 mM, DMSO) was diluted into filtered (0.2 μm syringe filter, Whatman, 6780-1302) PBS (pH 7.4) to a working concentration of 100 nM. Borosilicate glass coverslips (VWR Int, 22×22 mm) were cleaned for 1 hour using an argon plasma (PDC-002, Harrick Plasma). Frame-Seal slide chambers (9×9 mm^2, Biorad, Hercules, CA) were affixed to the glass and the slides washed three times with filtered PBS (3×50 μL). The working solution of ABN (100 nM, 50 μL) was added to the slide and left for 3-minutes allowing for some of the ABN molecules to adsorb to the plasma-cleaned glass surface. […]
Single-molecule imaging. Single-molecule fluorescence imaging of ABN was performed on a bespoke total internal reflection fluorescence microscope using a 488 nm continuous wavelength diode laser (iBeamSMART, Toptica, 200.46 Wcm^−2). […] Fluorescence emission was collected by the same objective lens and separated from excitation light using a dichroic mirror (Di01-R405/488/561/635, Semrock) and passed through appropriate emission filters (BLP01-488R-25, FF01-520/44-25, Semrock). The fluorescence was then expanded (1.5×) and focused onto an electron-multiplying charge-coupled device (EMCCD, Evolve 512 Delta, Photometrics) with an electron multiplication gain of 250 ADU/photon operating in frame transfer mode. […]
Data analysis. A custom ImageJ macro was used to determine the total number of photons detected from single ABN emitters. The frames from single-molecule movies were summed and the pixel of peak intensity from each molecule was determined using the inbuilt ‘Find Maxima’ function (prominence threshold=20,000). The single emitters were selected from a 6×6 region surrounding the pixel of peak intensity and the total integrated intensity of the region was measured. […] The intensity per ABN emitter was converted from counts to photons detected by dividing the integrated signal above background by the total gain of the EMCCD (35.7 ADU/photon).

[4] = Steady-state absorption and fluorescence of the ABN nucleoside in solvents
Source text: Photophysical properties. Steady-state measurements. […] Owing to the conjugated push-pull system in the design of ABN, the absorption and emission wavelengths are the longest known for a FBA designed to be capable of Watson-Crick hydrogen bonding. Recorded emission spectra in water using excitation wavelengths ranging from 310-500 nm are nearly superposable, as are excitation spectra recorded for emission wavelengths spanning 500-650 nm. These observations support the predominance of a single tautomeric form in dilute, aqueous solution.
as §1

[5] = Melting temperatures of ABN-containing oligonucleotides (temperature-dependent circular dichroism); settings: for Tm: ABN-containing hairpin or duplex
Source text: Temperature-dependent circular dichroism measurements of all six duplexes are consistent with the B-DNA conformation with only minimal perturbation (Table 2). Except in the ODN1 hairpin, where ABN is expected to be mostly solvent exposed, the melting temperatures of the duplexes are typically somewhat depressed as compared with their natural counterparts. Duplex stability is lowest when ABN has 5′-G and 3′-C neighbors, an observation consistent with other tricyclic FBAs, especially those that are electron-rich. The observed melting temperatures provide little indication of whether ABN is a better T- or C-surrogate.

[6] = Steady-state photophysical measurements of ABN in single-stranded and duplex DNA oligonucleotides; settings: 1×PBS buffer (pH 7.4), different concentrations
[7] = ABN in DNA oligonucleotide, 1×PBS buffer (pH 7.4)
[8] = Tm of ABN-containing duplex − Tm of corresponding duplex with canonical thymidine in place of ABN

## CCN(CC)c1ccc2cc3cc([C@H]4C[C@@H](O)[C@@H](CO)O4)c(=O)nc-3[nH]c2c1 [ABN, 8-(diethylamino)-3-((2R,4R,5R)-4-hydroxy-5-(hydroxymethyl)tetrahydrofuran-2-yl)benzo[b][1,8]naphthyridin-2(10H)-one]
[1]; FCS, controlled dilution
  bright/dark state by controlled dilution: exclusively in a bright state
[1]; FCS, two-photon excitation, 100 nM in TRIS buffer, excitation power 11 mW
  2P brightness (average count rate per molecule): 7 kHz per molecule and 7±0.5 kHz per molecule
[1]; single-molecule fluorescence measurements
  fraction of compound in a bright state: > 95%
[2]; in matched duplex DNA oligonucleotides, base paired with A
  Φem: 0.50-0.53
[3]; 0.2 kW cm^−2
  mean total on-time: 0.35 ± 0.18 s
[3]; 488 nm, 0.2 kW cm^−2, 100 ms integration
  mean number of photons detected per frame per single molecule: 1500±600 photons/100 ms
[3]; 488 nm, 0.2 kW cm^−2, log-normal fit, N=2402 molecules
  mean total number of photons detected per single molecule: 5300±1800 photons
[3]; one-photon excitation
  brightness following 1P excitation: 15 kHz per molecule
[4]
  λem, max: 540 nm
[4]; 1,4-dioxane
  ε · Φem (brightness): 19000 M⁻¹ cm⁻¹
  λem, max: 474 nm
  λex, max: 420 nm
[4]; 1,4-dioxane, emission 474 nm
  Φem: 0.64
[4]; 1 × PBS pH 7.4
  Φem: 0.39
  λex, max: 442 nm
[4]; H2O
  ε · Φem (brightness): 7800 M⁻¹ cm⁻¹
  λem, max: 540 nm
  λex, max: 442 nm
[4]; H2O, emission 540 nm
  Φem: 0.39
[4]; aqueous solution
  red shift of absorption relative to closest competitors on brightness (pA, coumarin nucleoside): more than 50 nm
  red shift of emission relative to closest competitors on brightness (pA, coumarin nucleoside): > 80 nm

## ODN1:ODN2: duplex of ODN1 with ODN2 (HairpinA, SEQ ID NO: 4); ABN base paired with A (chain 1 GCTTAGCAGGNTAGTGCTAAGC; chain 2 GCTTAGCACTAACCTGCTAAGC; ABN nucleoside, chemistry not fully specified)
[2]; [7]
  Φem: 0.53
  λabs, max: 440 nm
  λem, max: 530 nm
[5]
  Tm: 61.8 ± 0.4 °C
[5]; [8]
  ΔTm: −4.7 °C

## ODN4: 10-mer CGC AAX ATC G (SEQ ID NO: 2), X = ABN (ABN nucleoside, as printed in the source, key not given here)
[2]; [7]
  Φem: 0.49
  λabs, max: 452 nm
  λem, max: 540 nm

## ODN1:ODN3: duplex of ODN1 with ODN3 (HairpinG, SEQ ID NO: 5); ABN base paired with G (chain 1 GCTTAGCAGGNTAGTGCTAAGC; chain 2 GCTTAGCACTAGCCTGCTAAGC; ABN nucleoside, chemistry not fully specified)
[2]; [7]
  Φem: 0.40
  λabs, max: 468 nm
  λem, max: 523 nm
[5]
  Tm: 61.3 ± 0.6 °C
[5]; comparison with Tm of the corresponding natural duplex with a C:G base pair
  ΔTm: +1.6^c ° C.

## ODN1: hairpin GCT TAG CAG GXT AGT GCT AAG C (SEQ ID NO: 1), X = ABN in loop (GCT TAG CAG GXTAGT GCT AAG C; ABN abasic-like nucleoside in loop, as printed in the source, key not given here)
[2]; [7]
  Φem: 0.55
  λabs, max: 450 nm
  λem, max: 530 nm
[5]
  Tm: 63.6 ± 0.6 °C
[5]; [8]
  ΔTm: +3.1 °C

## ODN7: 10-mer CGC AGX CTC G (SEQ ID NO: 3), X = ABN (ABN nucleoside, as printed in the source, key not given here)
[2]; [7]
  Φem: 0.62
  λem, max: 532 nm
[6]
  concentration dependence of absorption spectra: concentration dependent
